Data taken from ChEMBL document CHEMBL4507280 (2021).

Key:
[1] = molecular target: Casein kinase I isoform gamma-3 (Homo sapiens) (UniProt Q9Y6M4); conditions: Compound concentration 1000.0 nM
[2] = tested on: Receptor-type tyrosine-protein kinase FLT3 (Homo sapiens), P36888 [UNDEFINED MUTATION]; conditions: Compound concentration 1000.0 nM
[3] = molecular target: Protein-tyrosine kinase 2-beta (Homo sapiens) (UniProt Q14289); conditions: Compound concentration 1000.0 nM
[4] = molecular target: Calcium/calmodulin-dependent protein kinase kinase 1 (Homo sapiens) (UniProt Q8N5S9); conditions: Compound concentration 1000.0 nM
[5] = molecular target: Cyclin-G-associated kinase (Homo sapiens) (UniProt O14976); conditions: Compound concentration 1000.0 nM
[6] = tested on: Tyrosine-protein kinase ABL1 (Homo sapiens), P00519 [F317L]; conditions: Compound concentration 1000.0 nM
[7] = molecular target: Mitogen-activated protein kinase kinase kinase 1 (Homo sapiens) (UniProt Q13233); conditions: Compound concentration 1000.0 nM
[8] = molecular target: Serine/threonine-protein kinase NLK (Homo sapiens) (UniProt Q9UBE8); conditions: Compound concentration 1000.0 nM
[9] = molecular target: Angiopoietin-1 receptor (Homo sapiens) (UniProt Q02763); conditions: Compound concentration 1000.0 nM
[10] = molecular target: Receptor-type tyrosine-protein kinase FLT3 (Homo sapiens) (UniProt P36888); conditions: Compound concentration 1000.0 nM
[11] = molecular target: Tyrosine-protein kinase JAK3 (Homo sapiens) (UniProt P52333); conditions: Compound concentration 1000.0 nM
[12] = molecular target: Ephrin type-A receptor 4 (Homo sapiens) (UniProt P54764); conditions: Compound concentration 1000.0 nM
[13] = molecular target: Cyclin-dependent kinase-like 1 (Homo sapiens) (UniProt Q00532); conditions: Compound concentration 1000.0 nM
[14] = molecular target: Serine/threonine-protein kinase mTOR (Homo sapiens) (UniProt P42345); conditions: Compound concentration 1000.0 nM
[15] = molecular target: Ribosomal protein S6 kinase alpha-1 (Homo sapiens) (UniProt Q15418); conditions: Compound concentration 1000.0 nM
[16] = tested on: Tyrosine-protein kinase ABL1 (Homo sapiens), P00519 [Q252H]; conditions: Compound concentration 1000.0 nM
[17] = molecular target: Glycogen synthase kinase-3 alpha (Homo sapiens) (UniProt P49840); conditions: Compound concentration 1000.0 nM
[18] = molecular target: Rhodopsin kinase GRK1 (Homo sapiens) (UniProt Q15835); conditions: Compound concentration 1000.0 nM
[19] = molecular target: SRSF protein kinase 3 (Homo sapiens) (UniProt Q9UPE1); conditions: Compound concentration 1000.0 nM
[20] = tested on: Phosphatidylinositol 4,5-bisphosphate 3-kinase catalytic subunit alpha isoform (Homo sapiens), P42336 [H1047Y]; conditions: Compound concentration 1000.0 nM
[21] = molecular target: T1, Alpha-1A adrenergic receptor (Homo sapiens) (UniProt P35348); conditions: Compound concentration 10.0 uM
T1 sequence (whole entry): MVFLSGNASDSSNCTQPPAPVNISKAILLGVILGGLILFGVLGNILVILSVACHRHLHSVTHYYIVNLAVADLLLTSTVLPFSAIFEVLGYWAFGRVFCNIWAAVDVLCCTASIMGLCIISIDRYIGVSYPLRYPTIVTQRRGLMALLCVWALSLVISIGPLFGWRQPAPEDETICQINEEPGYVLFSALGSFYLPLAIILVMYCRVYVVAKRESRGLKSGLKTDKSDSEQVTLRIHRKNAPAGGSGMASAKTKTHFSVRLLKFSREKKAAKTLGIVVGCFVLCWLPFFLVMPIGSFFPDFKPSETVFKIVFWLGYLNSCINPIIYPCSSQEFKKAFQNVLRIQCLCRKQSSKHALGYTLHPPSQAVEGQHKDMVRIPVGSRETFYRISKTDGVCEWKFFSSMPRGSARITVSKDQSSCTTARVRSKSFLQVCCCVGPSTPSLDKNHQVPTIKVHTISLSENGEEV

[22] = molecular target: Serine/threonine-protein kinase DCLK3 (Homo sapiens) (UniProt Q9C098); conditions: Compound concentration 1000.0 nM
[23] = tested on: Tyrosine-protein kinase ABL1 (Homo sapiens), P00519 [Q252H]; conditions: Compound concentration 1000.0 nM; remark: listed apart in the source
[24] = molecular target: Platelet-derived growth factor receptor beta (Homo sapiens) (UniProt P09619); conditions: Compound concentration 1000.0 nM
[25] = molecular target: Serine/threonine-protein kinase PRP4 homolog (Homo sapiens) (UniProt Q13523); conditions: Compound concentration 1000.0 nM
[26] = molecular target: T2, Alpha-1B adrenergic receptor (Homo sapiens) (UniProt P35368); conditions: Compound concentration 10.0 uM
T2 sequence (whole entry): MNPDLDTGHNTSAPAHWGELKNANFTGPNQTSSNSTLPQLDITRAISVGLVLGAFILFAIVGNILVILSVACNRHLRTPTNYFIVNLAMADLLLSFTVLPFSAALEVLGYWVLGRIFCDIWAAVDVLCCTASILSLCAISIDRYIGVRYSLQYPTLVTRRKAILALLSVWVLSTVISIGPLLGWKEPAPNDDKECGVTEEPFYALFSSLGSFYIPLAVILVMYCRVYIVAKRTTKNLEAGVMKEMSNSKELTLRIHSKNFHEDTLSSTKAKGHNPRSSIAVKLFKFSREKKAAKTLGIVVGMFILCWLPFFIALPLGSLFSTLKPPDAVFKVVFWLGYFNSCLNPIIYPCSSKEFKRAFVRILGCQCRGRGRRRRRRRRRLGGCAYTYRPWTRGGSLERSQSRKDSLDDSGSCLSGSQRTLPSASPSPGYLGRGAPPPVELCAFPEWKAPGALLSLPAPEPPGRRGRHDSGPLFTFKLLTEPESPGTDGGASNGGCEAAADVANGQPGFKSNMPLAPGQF

[27] = molecular target: Phosphatidylinositol 4-phosphate 5-kinase type-1 alpha (Homo sapiens) (UniProt Q99755); conditions: Compound concentration 1000.0 nM
[28] = molecular target: Tyrosine-protein kinase CSK (Homo sapiens) (UniProt P41240); conditions: Compound concentration 1000.0 nM
[29] = molecular target: Insulin receptor-related protein (Homo sapiens) (UniProt P14616); conditions: Compound concentration 1000.0 nM
[30] = molecular target: Serine/threonine-protein kinase RIO2 (Homo sapiens) (UniProt Q9BVS4); conditions: Compound concentration 1000.0 nM
[31] = molecular target: Focal adhesion kinase 1 (Homo sapiens) (UniProt Q05397); conditions: Compound concentration 1000.0 nM
[32] = molecular target: MAP kinase-activated protein kinase 2 (Homo sapiens) (UniProt P49137); conditions: Compound concentration 1000.0 nM

Sequence of Tyrosine-protein kinase JAK3 (Homo sapiens) (P52333 whole entry): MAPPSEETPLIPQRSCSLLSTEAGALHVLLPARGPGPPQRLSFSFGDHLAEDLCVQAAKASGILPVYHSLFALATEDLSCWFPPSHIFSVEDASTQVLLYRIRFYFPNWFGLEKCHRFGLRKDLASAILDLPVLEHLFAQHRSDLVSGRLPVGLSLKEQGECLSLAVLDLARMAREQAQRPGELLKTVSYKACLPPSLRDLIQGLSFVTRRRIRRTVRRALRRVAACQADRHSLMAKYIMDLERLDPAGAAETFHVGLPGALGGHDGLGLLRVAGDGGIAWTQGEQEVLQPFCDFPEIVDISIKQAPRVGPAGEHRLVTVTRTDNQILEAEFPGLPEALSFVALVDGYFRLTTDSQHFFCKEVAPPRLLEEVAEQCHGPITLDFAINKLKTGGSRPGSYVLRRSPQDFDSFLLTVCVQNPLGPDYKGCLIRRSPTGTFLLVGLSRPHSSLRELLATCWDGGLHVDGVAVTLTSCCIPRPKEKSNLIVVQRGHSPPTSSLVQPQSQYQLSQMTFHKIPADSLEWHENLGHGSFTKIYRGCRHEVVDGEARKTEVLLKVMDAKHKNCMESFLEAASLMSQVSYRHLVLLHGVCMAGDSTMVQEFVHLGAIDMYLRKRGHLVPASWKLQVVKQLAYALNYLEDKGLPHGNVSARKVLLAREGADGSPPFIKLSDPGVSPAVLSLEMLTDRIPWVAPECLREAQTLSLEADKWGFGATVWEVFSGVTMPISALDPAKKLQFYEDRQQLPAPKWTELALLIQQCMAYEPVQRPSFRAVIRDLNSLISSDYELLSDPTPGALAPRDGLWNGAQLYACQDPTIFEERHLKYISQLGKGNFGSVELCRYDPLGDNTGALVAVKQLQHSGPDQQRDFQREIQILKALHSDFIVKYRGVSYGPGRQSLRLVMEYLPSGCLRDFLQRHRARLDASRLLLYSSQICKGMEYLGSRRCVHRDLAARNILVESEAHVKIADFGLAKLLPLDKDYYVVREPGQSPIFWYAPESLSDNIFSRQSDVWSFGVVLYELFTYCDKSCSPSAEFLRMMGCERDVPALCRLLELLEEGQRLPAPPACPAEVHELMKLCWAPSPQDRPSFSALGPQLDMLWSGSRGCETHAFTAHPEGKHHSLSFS
Sequence of Mitogen-activated protein kinase kinase kinase 1 (Homo sapiens) (Q13233 whole entry): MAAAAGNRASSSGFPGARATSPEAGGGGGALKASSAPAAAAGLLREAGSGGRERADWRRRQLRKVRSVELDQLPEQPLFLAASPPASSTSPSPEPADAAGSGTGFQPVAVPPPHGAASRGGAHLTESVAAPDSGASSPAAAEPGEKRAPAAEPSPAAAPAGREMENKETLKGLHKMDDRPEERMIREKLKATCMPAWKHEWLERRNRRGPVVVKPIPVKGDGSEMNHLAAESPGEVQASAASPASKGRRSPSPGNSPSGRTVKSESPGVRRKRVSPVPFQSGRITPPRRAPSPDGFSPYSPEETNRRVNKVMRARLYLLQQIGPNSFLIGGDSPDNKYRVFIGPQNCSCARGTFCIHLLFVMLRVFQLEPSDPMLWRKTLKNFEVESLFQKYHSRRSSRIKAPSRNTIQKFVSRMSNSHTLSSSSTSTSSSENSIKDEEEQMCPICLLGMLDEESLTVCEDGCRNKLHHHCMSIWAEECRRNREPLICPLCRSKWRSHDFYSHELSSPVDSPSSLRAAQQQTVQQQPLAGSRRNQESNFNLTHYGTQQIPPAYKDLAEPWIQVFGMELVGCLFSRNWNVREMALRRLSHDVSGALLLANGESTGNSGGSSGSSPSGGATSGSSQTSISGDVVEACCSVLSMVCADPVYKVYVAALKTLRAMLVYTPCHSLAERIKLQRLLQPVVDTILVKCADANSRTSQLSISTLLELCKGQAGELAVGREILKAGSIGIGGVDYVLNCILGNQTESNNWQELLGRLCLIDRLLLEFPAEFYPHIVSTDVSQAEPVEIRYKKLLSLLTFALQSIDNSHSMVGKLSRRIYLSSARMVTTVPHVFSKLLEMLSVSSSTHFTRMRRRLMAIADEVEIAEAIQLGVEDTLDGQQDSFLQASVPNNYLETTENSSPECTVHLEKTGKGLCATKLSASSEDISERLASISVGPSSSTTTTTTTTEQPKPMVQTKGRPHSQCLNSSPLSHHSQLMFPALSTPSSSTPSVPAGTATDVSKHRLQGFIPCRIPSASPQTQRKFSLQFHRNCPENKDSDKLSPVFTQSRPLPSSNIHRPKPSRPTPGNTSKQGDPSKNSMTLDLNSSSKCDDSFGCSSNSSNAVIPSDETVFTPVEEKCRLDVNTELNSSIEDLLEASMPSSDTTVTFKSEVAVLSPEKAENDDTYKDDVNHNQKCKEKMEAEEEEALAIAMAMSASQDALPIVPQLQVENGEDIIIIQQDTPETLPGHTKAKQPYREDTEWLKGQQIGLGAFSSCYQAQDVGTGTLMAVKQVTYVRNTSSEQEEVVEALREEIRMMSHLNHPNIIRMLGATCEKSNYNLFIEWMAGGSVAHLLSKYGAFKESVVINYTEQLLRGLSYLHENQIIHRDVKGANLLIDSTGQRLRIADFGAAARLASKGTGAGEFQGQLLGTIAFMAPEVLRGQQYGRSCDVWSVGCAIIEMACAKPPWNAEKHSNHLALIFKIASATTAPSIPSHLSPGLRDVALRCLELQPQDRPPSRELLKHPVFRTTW
Sequence of Protein-tyrosine kinase 2-beta (Homo sapiens) (Q14289 whole entry, looked up): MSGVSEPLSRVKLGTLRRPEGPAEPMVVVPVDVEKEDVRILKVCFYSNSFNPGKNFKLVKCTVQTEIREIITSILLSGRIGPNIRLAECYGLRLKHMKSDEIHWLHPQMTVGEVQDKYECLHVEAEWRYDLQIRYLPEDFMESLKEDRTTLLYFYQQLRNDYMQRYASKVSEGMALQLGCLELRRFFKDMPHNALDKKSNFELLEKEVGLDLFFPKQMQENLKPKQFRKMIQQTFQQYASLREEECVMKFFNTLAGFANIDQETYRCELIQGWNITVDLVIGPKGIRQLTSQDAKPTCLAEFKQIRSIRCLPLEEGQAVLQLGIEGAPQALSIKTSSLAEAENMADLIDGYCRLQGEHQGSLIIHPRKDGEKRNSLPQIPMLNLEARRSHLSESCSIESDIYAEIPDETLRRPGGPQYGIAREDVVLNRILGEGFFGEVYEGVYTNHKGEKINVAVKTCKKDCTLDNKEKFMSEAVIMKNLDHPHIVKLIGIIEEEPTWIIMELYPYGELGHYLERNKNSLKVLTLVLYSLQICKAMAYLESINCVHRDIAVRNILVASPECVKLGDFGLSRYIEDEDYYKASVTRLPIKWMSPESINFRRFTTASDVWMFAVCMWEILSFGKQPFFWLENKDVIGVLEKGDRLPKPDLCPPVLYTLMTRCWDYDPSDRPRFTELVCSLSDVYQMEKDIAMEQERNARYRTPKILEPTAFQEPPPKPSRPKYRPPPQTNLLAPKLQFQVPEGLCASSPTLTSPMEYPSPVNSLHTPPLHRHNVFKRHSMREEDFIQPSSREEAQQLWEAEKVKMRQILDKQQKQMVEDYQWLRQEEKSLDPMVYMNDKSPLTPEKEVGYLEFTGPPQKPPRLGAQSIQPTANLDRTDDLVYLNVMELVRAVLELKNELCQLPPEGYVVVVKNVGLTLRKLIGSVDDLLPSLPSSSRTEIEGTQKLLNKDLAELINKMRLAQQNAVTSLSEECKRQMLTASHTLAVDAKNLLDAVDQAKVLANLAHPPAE
Sequence of Cyclin-G-associated kinase (Homo sapiens) (O14976 whole entry): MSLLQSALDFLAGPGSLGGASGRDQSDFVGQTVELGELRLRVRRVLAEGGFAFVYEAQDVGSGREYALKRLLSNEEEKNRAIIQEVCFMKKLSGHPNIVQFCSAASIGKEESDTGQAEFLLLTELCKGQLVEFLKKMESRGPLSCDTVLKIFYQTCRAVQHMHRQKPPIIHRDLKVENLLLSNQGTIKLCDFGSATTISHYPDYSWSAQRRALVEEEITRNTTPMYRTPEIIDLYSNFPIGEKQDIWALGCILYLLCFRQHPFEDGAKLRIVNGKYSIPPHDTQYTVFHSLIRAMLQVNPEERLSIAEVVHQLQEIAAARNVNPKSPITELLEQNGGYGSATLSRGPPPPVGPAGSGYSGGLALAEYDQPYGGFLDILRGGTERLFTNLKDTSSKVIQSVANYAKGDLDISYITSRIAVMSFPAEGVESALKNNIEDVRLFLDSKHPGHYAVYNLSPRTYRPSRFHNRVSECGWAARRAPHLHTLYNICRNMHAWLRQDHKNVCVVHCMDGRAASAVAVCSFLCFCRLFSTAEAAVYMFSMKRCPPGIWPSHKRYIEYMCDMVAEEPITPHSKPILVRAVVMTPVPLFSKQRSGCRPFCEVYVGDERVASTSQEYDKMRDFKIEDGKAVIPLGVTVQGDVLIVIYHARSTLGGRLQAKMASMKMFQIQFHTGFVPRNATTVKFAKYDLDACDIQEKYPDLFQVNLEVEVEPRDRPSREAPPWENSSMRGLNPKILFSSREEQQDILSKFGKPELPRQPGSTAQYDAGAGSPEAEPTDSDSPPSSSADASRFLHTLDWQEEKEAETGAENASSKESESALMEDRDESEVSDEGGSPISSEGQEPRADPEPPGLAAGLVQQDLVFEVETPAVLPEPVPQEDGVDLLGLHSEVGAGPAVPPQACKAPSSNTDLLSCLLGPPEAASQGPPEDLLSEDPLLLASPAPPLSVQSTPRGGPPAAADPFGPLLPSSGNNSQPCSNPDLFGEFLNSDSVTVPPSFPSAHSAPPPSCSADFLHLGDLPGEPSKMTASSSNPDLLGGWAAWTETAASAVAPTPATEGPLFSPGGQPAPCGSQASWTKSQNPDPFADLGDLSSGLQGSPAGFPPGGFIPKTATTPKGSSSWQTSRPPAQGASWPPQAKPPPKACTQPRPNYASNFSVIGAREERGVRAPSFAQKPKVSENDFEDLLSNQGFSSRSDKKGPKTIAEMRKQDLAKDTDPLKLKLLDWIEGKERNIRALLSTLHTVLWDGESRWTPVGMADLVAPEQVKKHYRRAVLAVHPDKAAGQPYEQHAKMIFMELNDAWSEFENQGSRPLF

CCC(=O)N[C@H]1CC[C@@H](C(=O)N(C)c2ccc(-c3nc4ccccc4o3)cc2)C1 [BI 99179]
inactive: residual activity [1] 99% | residual activity [2] 100% | residual activity [3] 100% | residual activity [4] 85% | residual activity [5] 100% | residual activity [6] 86% | residual activity [7] 73% | residual activity [8] 87% | residual activity [9] 85% | residual activity [10] 78% | residual activity [11] 100% | residual activity [12] 79% | residual activity [13] 95% | residual activity [14] 92% | residual activity [15] 100% | residual activity [16] 78% | residual activity [17] 100% | residual activity [18] 77% | residual activity [19] 100% | residual activity [20] 97% | inhibition [21] 22.1% | residual activity [22] 87% | residual activity [23] 72% | residual activity [24] 89% | residual activity [25] 99% | inhibition [26] -6.32% | residual activity [27] 100% | residual activity [28] 100% | residual activity [29] 100% | residual activity [30] 84% | residual activity [31] 100% | residual activity [32] 97%

CCC(=O)N[C@@H]1CC[C@H](C(=O)N(C)c2ccc(-c3nc4ccccc4o3)cc2)C1 [BI 99990]
inactive: residual activity [1] 100% | residual activity [2] 94% | residual activity [3] 100% | residual activity [4] 100% | residual activity [5] 100% | residual activity [6] 92% | residual activity [7] 74% | residual activity [8] 100% | residual activity [9] 82% | residual activity [10] 89% | residual activity [11] 98% | residual activity [12] 100% | residual activity [13] 90% | residual activity [14] 99% | residual activity [15] 100% | residual activity [16] 87% | residual activity [17] 84% | residual activity [18] 76% | residual activity [19] 100% | residual activity [20] 100% | inhibition [21] 19.4% | residual activity [22] 100% | residual activity [23] 77% | residual activity [24] 98% | residual activity [25] 77% | inhibition [26] -6.47% | residual activity [27] 86% | residual activity [28] 100% | residual activity [29] 100% | residual activity [30] 100% | residual activity [31] 100% | residual activity [32] 87%
